Laboratory results published in patent publication US11738027B2, “MPO inhibitors for use in medicine” (AstraZeneca AB, priority 2017, dated 2023).

Legend:
[1] = test system: in situ zymosan activated peritoneum neutrophils; test: In vivo glutathione sulphonamide formation; set-up: species or system rat; conditions: rats, plasma concentration of ~5 μM
[2] = test system: human sperm with activated human neutrophils; test: Sperm motility assessment (Hamilton-Thorn CASA) with activated neutrophils; format: cell-based; conditions: 3 μM
Method: (§1) The neutrophils were then added to the sperm in sperm-safe 5 mL Polystyrene round bottom tubes (Falcon) at a ratio of about 1:3.
Sperm motility was assessed using the Hamilton-Thorn CASA system. For each condition, a total of 200 cells were counted in at least four different fields of view. Where a sample had very low motility at least 100 cells were counted. The motility parameters were assessed at the start of the co-incubation with neutrophils (time 0), after 2 h and after 24 h. Motility was expressed as a percentage different between time 0 and after 2 h and percentage difference after time 0 and after 24 h for each time point for each sample.

[3] = test system: isolated human neutrophils; test: PMA stimulated HOCl in isolated neutrophils; format: cell-based; conditions: Neutrophil
[4] = test system: human sperm with activated human neutrophils; test: Kremer penetration assay; format: cell-based; conditions: 3 μM
Method: as §1
The Kremer penetration test assesses a sperm cell's ability to penetrate and swim through viscous media. This test is also known as the sperm-cervical mucus penetration test. A cervical mucus substitute was made up using 1% methyl cellulose dissolved in capacitating media. The solution was gassed in a 37° C. 5% CO2 incubator for 20 min. Then flat capillary tubes (Rectangle Boro Tubing, CM Scientific) were placed in the methyl cellulose solution for a further 20 min to allow the media to flow up the capillary tubes. After the 2 h incubation, 100 μL from each condition was aliquoted into a fresh sperm safe tube. One end of each tube was then blocked using plasticine and then one tube was placed open end first into each test condition. Each sperm safe tube containing a capillary tube was incubated 1 hour at 37° C. with 5% CO2. After 1 h, the capillary tubes were removed and the number of cells at 1 cm mark were counted manually. The results were expressed as a ratio to control (sperm only).

[5] = Phase 1 studies in healthy volunteers, adverse events; format: in vivo, human; conditions: oral, single doses up to 1200 mg (1400 mg ER), multiple up to 325 mg TID (600 mg BID 10 days ER), 181 subjects
[6] = molecular target: T1, human MPO (Homo sapiens, UniProt P05164); test: MPO inhibition; format: biochemical; conditions: read-out: IC50, irreversible inhibitor of human MPO
T1 sequence (P05164 49-745): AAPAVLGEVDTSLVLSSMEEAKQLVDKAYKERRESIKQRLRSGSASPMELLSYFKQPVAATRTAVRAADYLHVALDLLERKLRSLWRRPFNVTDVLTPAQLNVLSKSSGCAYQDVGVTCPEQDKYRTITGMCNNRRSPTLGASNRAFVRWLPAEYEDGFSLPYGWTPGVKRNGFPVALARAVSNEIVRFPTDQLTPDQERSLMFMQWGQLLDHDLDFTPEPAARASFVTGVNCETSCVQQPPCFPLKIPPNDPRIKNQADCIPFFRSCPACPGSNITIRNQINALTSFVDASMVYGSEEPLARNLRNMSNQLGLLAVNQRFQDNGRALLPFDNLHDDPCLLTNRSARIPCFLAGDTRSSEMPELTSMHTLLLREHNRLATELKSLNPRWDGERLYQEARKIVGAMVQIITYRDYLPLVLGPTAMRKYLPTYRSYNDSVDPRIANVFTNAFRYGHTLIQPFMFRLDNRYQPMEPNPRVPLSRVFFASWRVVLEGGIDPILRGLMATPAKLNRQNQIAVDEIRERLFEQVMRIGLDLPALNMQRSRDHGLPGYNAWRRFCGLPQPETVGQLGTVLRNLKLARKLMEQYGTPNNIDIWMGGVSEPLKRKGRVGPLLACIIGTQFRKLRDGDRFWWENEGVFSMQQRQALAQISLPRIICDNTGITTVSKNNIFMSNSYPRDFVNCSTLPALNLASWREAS

[7] = test system: human sperm; conditions: 4 mM, 2-hour incubation, N=29, P<0.01
Method: A 10 mM stock solution of the drug was made up in 100% DMSO. This was then serially diluted to a working concentration of 3 μM using sEBSS as the diluent and stored at 4° C. The drug or vehicle was then added to the neutrophils and placed in a 37° C. water bath for 10 min. The neutrophils were then added to the sperm in sperm-safe 5 mL Polystyrene round bottom tubes (Falcon) at a ratio of about 1:3. Zymosan at a final concentration of 1 μg/ml was added to activate the neutrophils and incubated for 2 hours at 37° C.
Following the 2 h incubation with activated neutrophils, aliquots of 50 μL were taken from all 4 conditions and transferred into 1.5 mL Eppendorf tubes. H2O2 was used as a positive control. An extra aliquot for a secondary only control was taken from the sperm only tube. The cells (except the secondary only tube) were incubated for 0.5 h at 37° C. with an anti-malondialdehyde (MDA) antibody (ab27642, abcam, Cambridge) at a working ratio of 1:50 (Moazamian R, Polhemus A, Connaughton H, Fraser B, Whiting S, Gharagozloo P, Aitken R J. Mol Hum Reprod 2015; 21(6):502-15). […] The level of MDA staining in each condition was then assessed in 10,000 cells using a pre-validated flow cytometry program in a BD LSRFortessa cell analyser. Due to a technical error one sample was unable to be assessed using flow cytometry.

O=c1[nH]c(=S)n(C[C@H]2CCCO2)c2nc[nH]c12 [AZD5904, 3-[[(2R)-tetrahydrofuran-2-yl]methyl]-2-thioxo-7H-purin-6-one]
in vivo formation of glutathione sulphonamide [1]: decreased | absolute change in overall sperm motility from baseline to 2 h and 24 h ([2]; first 11 subjects, vs vehicle, two-tailed t-test P=0.09): statistical trend | percentage differences between CASA measurements at time zero and after 24-hour incubation (motility, progressive, rapid, VAP, VSL, VCL, ALH) ([2]; n=29, vs vehicle, not statistically significant (P>0.1)): positive trend | inhibition at 1 µM [3]: > 90% | patients with clinically-relevant beneficial effect ([4]; 29 patients evaluated): over 50% | sperm found at 1 cm versus vehicle ([4]; 2 h incubation, n=29, p=0.02): significantly more sperm | further subjects showing a smaller improvement ([4]; of 29 patients): 8 | subjects with clinically-relevant improvement in sperm penetration ([4]; of the 29 subjects): 15 | drug-related adverse events [5]: No overtly drug-related adverse event | IC50 [6]: 140 nM

OO [H2O2, hydrogen peroxide]
MDA staining versus the other conditions [7]: stained significantly more
